Converted amounts (≈) assume the structure as drawn. Like-named read-outs stand apart in the source and are kept apart here.
Tests used:
Type in all cases: physicochemical
[1] = Evaluation of solubility (37° C., 30 min, HPLC); conditions: thermodynamic from solid
Method: A supersaturated amount of each sample was placed in a 12-mL test tube, and 3 mL of a test solution (water, Japanese Pharmacopoeia disintegration test solution No. 1 (JP1), and Japanese Pharmacopoeia disintegration test solution No. 2 (JP2)) was added thereto. The test tube was incubated in a constant-temperature water bath at 37° C. The test tube was shaken using a vortex mixer for 30 seconds every 5 minutes. 30 minutes later, the supernatant was filtered through a membrane filter (pore size: 0.45 μm), appropriately diluted with eluent, and then analyzed by HPLC under the following conditions. The concentration was calculated from a calibration curve prepared before measurement.
Measurement conditions of HPLC (column: Waters Symmetry C18 4.6 mm×150 mm, eluent: 0.05 M phosphate buffer (pH 5.0): acetonitrile=70:30, flow rate: 1 mL/min., detection: UV 220 nm, column temperature: 40° C.)

[2] = Evaluation of crystal stability (storage at 25° C. at adjusted relative humidity); conditions: for 0% RH Weight change (%) / 52% RH Weight change (%) / 93% RH Weight change (%): 25° C., 3-day storage
Method: Approximately 50 mg of each of various samples prepared in Example 1 was placed in a weighing bottle and stored at 25° C. in a desiccator whose relative humidity was adjusted to 0%, 52%, or 93% by a saturated salt solution method (silica gel, Mg(NO3)2, KNO3). […]

[3] = Evaluation of chemical stability (dry heat, wet heat, light irradiation; HPLC residue); conditions: for Residue (%, mean ± SD) Light irradiation (Lx · hr) 60 × 10^4: light irradiation 60 × 10^4 Lx · hr; for Residue (%, mean ± SD) Light irradiation (Lx · hr) 120 × 10^4: light irradiation 120 × 10^4 Lx · hr; for Residue (%, mean ± SD) 50° C., 0% RH 1 week later / Residue (%, mean ± SD) 50° C., 0% RH 2 week later: dry heat 50° C.; for Residue (%, mean ± SD) 50° C., 0% RH 2 week later / Residue (%, mean ± SD) 40° C., 75% RH 2 week later: 2 weeks; for Residue (%, mean ± SD) 40° C., 75% RH 1 week later / Residue (%, mean ± SD) 40° C., 75% RH 2 week later: wet heat 40° C.
Method: Approximately 2 mg of each of various samples prepared in Example 1 was weighed into an aluminum pan for thermal analysis and stored under dry heat (50° C., 0% RH) or wet heat (40° C., 75% RH) conditions. 1 week or 2 weeks later, each sample was collected, and the weight change was measured. Then, the whole amount was dissolved in 20 mL of eluent and analyzed by HPLC. For photolysis samples, approximately 10 mg of each sample was weighed into a weighing bottle and stored at 25° C. in a light irradiator. After irradiation at 600,000 or 1,200,000 Lx/hr, the sample was collected, and the weight change was measured. Then, the whole amount was dissolved in 100 mL of eluent and analyzed by HPLC. The residue proportion was determined from the ratio between the concentration of the sample solution calculated from a calibration curve prepared before measurement and the theoretical concentration calculated from weight measurement.
Measurement conditions of HPLC (column: Waters Symmetry C18 4.6 mm×150 mm, eluent: 0.05 M phosphate buffer (pH 5.0): acetonitrile=80:20, flow rate: 1 mL/min., detection: UV 220 nm, column temperature: 40° C.)

[4] = Moisture absorption and desorption characteristics (microbalance, water vapor adsorption apparatus); conditions: 25° C., 10-90% RH
Method: Various samples prepared in Example 1 were separately placed in quartz holders and measured for their moisture absorption and desorption behavior under the following conditions using a microbalance.
Moisture absorption and desorption behavior measurement conditions (sample volume: approximately 20 mg, measurement range: 10-90% RH, measurement temperature: 25° C., variable: within 0.03%, varying length of time: 10 min., apparatus: VTI atmospheric pressure-type automatic water vapor adsorption apparatus SGA-100)

solubility at 30 min ([1]; pH 1.2, simulated gastric fluid, Japanese Pharmacopoeia disintegration test solution No. 1, 37° C., read-out: JP1 (Solubility (μg/mL)))	solubility at 30 min ([1]; pH 6.8, aqueous buffer, Japanese Pharmacopoeia disintegration test solution No. 2, 37° C., read-out: JP2 (Solubility (μg/mL)))	solubility at 30 min ([1]; water, 37° C., read-out: Water (Solubility (μg/mL)))	0% RH Weight change (%) [2]	52% RH Weight change (%) [2]	93% RH Weight change (%) [2]	Light irradiation Color ([3]; 25° C., after light irradiation)	Residue (%, mean ± SD) Light irradiation (Lx · hr) 60 × 10^4 ([3]; 25° C.)	Residue (%, mean ± SD) Light irradiation (Lx · hr) 120 × 10^4 ([3]; 25° C.)	Residue (%, mean ± SD) 50° C., 0% RH 1 week later [3]	Residue (%, mean ± SD) 50° C., 0% RH 2 week later [3]	Residue (%, mean ± SD) 40° C., 75% RH 1 week later [3]	Residue (%, mean ± SD) 40° C., 75% RH 2 week later [3]	Compound	moisture absorption and desorption characteristics/behavior (in words) [4]	stability on storage: weight and crystal form (in words) ([2]; stored for 3 days under three standard relative humidity conditions at 25° C.)
> 2000 µg/mL	49.8 µg/mL (≈ 90.9 µM)	47.5 µg/mL (≈ 86.7 µM)	−0.32%	−0.22%	−0.04%	Changed	92.0 ± 0.3%	82.8 ± 0.4%	99.3 ± 0.4%	97.5 ± 0.7%	99.8 ± 0.3%	98.7 ± 1.3%	CN1CCc2nc(C(=O)N[C@@H]3C[C@@H](C(=O)N(C)C)CC[C@@H]3NC(=O)C(=O)Nc3ccc(Cl)cn3)sc2C1 [Compound A, N^1-(5-chloropyridin-2-yl)-N^2-((1S,2R,4S)-4-[(dimethylamino)carbonyl]-2-{[(5-methyl-4,5,6,7-tetrahydrothiazolo[5,4-c]pyridin-2-yl)carbonyl]amino}cyclohexyl)ethanediamide]		
			−0.35%	0.05%	0.31%		98.2 ± 0.9%	95.0 ± 1.2%	100.4 ± 0.7%	100.1 ± 0.7%	100.1 ± 0.7%	100.1 ± 0.3%	CN1CCc2nc(C(=O)N[C@@H]3C[C@@H](C(=O)N(C)C)CC[C@@H]3NC(=O)C(=O)Nc3ccc(Cl)cn3)sc2C1.O.O=C(O)C(O)C(O)C(=O)O [compound II, N^1-(5-chloropyridin-2-yl)-N^2-((1S,2R,4S)-4-[(dimethylamino)carbonyl]-2-{[(5-methyl-4,5,6,7-tetrahydrothiazolo[5,4-c]pyridin-2-yl)carbonyl]amino}cyclohexyl)ethanediamide(+)-tartrate monohydrate]	favorable moisture absorption and desorption characteristics	stable without change both in weight and in crystal form
